According to PubChem BioAssay AID248 (DTP/NCI, 2004):
Values joined by “and” are separate entries in the source; they are usually repeats but may differ in a detail not shown here. Equal values may be shown once. Toxic doses and inconclusive results are not listed.

Test system: L1210 leukemia ip in BDF1 mice, survival T/C
Test: NCI In Vivo Anticancer Drug Screen. Data for tumor model L1210 Leukemia (intraperitoneal) in B6D2F1 (BDF1) mice
Conditions: endpoint: mean survival time, higher = longer survival
Outline: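 Mice bearing the transplanted tumor received compound or vehicle. Survival of the treated group was divided by that of the vehicle-treated control group to give the ratio.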

With `O=C(Nc1ccc(C2=NCCN2)cc1)c1ccc(C(=O)Nc2ccc(C3=NCCN3)cc2)c(Cl)c1` the T/C (dose: 1.8 mg/kg/injection, schedule: Q01DX009 (ip), vehicle: Klucel (hydroxypropylcellulose) (HPC)) was 100 % of control and 105 % of control, the T/C (dose: 2.0 mg/kg/injection, schedule: Q01DX010 (ip), vehicle: other) was 94 % of control and 101 % of control and the T/C (dose: 2.0 mg/kg/injection, schedule: Q01DX Z (ip), vehicle: saline) was 103 % of control. For the same compound, the T/C (dose: 2.0 mg/kg/injection, schedule: Q01DX Z (sc), vehicle: carboxymethylcellulose (CMC)) was 110 % of control, the T/C (dose: 2.5 mg/kg/injection, schedule: Q04DX002 (ip), vehicle: Klucel (hydroxypropylcellulose) (HPC)) was 95 % of control and the T/C (dose: 3.0 mg/kg/injection, schedule: Q03DX Z (ip), vehicle: saline) was 114 % of control. The T/C (dose: 3.5 mg/kg/injection, schedule: Q01DX009 (ip), vehicle: Klucel (hydroxypropylcellulose) (HPC)) was 107 % of control and 115 % of control, the T/C (dose: 4.0 mg/kg/injection, schedule: Q01DX010 (ip), vehicle: other) was 107 % of control and 117 % of control and the T/C (dose: 4.0 mg/kg/injection, schedule: Q01DX Z (sc), vehicle: carboxymethylcellulose (CMC)) was 110 % of control. The T/C (dose: 5.0 mg/kg/injection, schedule: Q04DX002 (ip), vehicle: Klucel (hydroxypropylcellulose) (HPC)) was 95 % of control, the T/C (dose: 6.0 mg/kg/injection, schedule: Q03DX Z (ip), vehicle: saline) was 118 % of control and the T/C (dose: 6.7 mg/kg/injection, schedule: Q01DX010 (ip), vehicle: other) was 124 % of control. The T/C (dose: 6.7 mg/kg/injection, schedule: Q01DX015 (ip), vehicle: carboxymethylcellulose (CMC)) was 116 % of control, the T/C (dose: 7.8 mg/kg/injection, schedule: Q02DX010 (ip), vehicle: carboxymethylcellulose (CMC)) was 117 % of control and the T/C (dose: 8.0 mg/kg/injection, schedule: Q01DX Z (ip), vehicle: saline) was 188 % of control. For the same compound, the T/C (dose: 10.0 mg/kg/injection, schedule: Q01DX015 (ip), vehicle: carboxymethylcellulose (CMC)) was 119 % of control, the T/C (dose: 11.0 mg/kg/injection, schedule: Q02DX010 (ip), vehicle: carboxymethylcellulose (CMC)) was 181 % of control and the T/C (dose: 12.5 mg/kg/injection, schedule: Q02DX004 (im), vehicle: olive oil, sesame oil, peanut oil) was 116 % of control and 119 % of control. The T/C (dose: 13.0 mg/kg/injection, schedule: Q## X004 (ip), vehicle: carboxymethylcellulose (CMC)) was 105 % of control and 106 % of control, the T/C (dose: 15.0 mg/kg/injection, schedule: Q01DX010 (ip), vehicle: other) was 166 % of control and the T/C (dose: 15.0 mg/kg/injection, schedule: Q01DX015 (ip), vehicle: carboxymethylcellulose (CMC)) was 169 % of control and 171 % of control. The T/C (dose: 16.0 mg/kg/injection, schedule: Q01DX010 (ip), vehicle: water) was 156 % of control, the T/C (dose: 16.0 mg/kg/injection, schedule: Q01DX Z (ip), vehicle: saline) was 173 % of control and the T/C (dose: 17.4 mg/kg/injection, schedule: Q02DX008 (ip), vehicle: carboxymethylcellulose (CMC)) was 121 % of control. For the same compound, the T/C (dose: 20.0 mg/kg/injection, schedule: Q01DX001 (ip), vehicle: saline) was 114 % of control, the T/C (dose: 20.0 mg/kg/injection, schedule: Q## X004 (ip), vehicle: carboxymethylcellulose (CMC)) was 103 % of control and 114 % of control and the T/C (dose: 22.5 mg/kg/injection, schedule: Q01DX010 (ip), vehicle: other) was 178 % of control. For the same compound, the T/C (dose: 24.0 mg/kg/injection, schedule: Q02DX010 (ip), vehicle: carboxymethylcellulose (CMC)) was 168 % of control, the T/C (dose: 25.0 mg/kg/injection, schedule: Q01DX001 (im), vehicle: steriod suspending solution) was 103 % of control and the T/C (dose: 26.0 mg/kg/injection, schedule: Q02DX008 (ip), vehicle: carboxymethylcellulose (CMC)) was 168 % of control. The T/C (dose: 26.0 mg/kg/injection, schedule: Q02DX010 (ip), vehicle: carboxymethylcellulose (CMC)) was 169 % of control and 182 % of control, the T/C (dose: 28.0 mg/kg/injection, schedule: Q07DX Z (ip), vehicle: saline) was 121 % of control and the T/C (dose: 29.0 mg/kg/injection, schedule: Q01DX001 (ip), vehicle: carboxymethylcellulose (CMC)) was 122 % of control. For the same compound, the T/C (dose: 29.0 mg/kg/injection, schedule: Q01DX001 (ip), vehicle: other) was 109 % of control, the T/C (dose: 30.0 mg/kg/injection, schedule: Q01DX001 (ip), vehicle: carboxymethylcellulose (CMC)) was 116 % of control and 118 % of control and the T/C (dose: 30.0 mg/kg/injection, schedule: Q## X004 (ip), vehicle: carboxymethylcellulose (CMC)) was 113 % of control and 115 % of control. For the same compound, the T/C (dose: 32.0 mg/kg/injection, schedule: Q01DX Z (sc), vehicle: carboxymethylcellulose (CMC)) was 185 % of control, the T/C (dose: 33.7 mg/kg/injection, schedule: Q01DX010 (ip), vehicle: other) was 167 % of control and the T/C (dose: 39.0 mg/kg/injection, schedule: Q01DX015 (ip), vehicle: carboxymethylcellulose (CMC)) was 119 % of control. For the same compound, the T/C (dose: 39.0 mg/kg/injection, schedule: Q02DX008 (ip), vehicle: carboxymethylcellulose (CMC)) was 184 % of control and 192 % of control, the T/C (dose: 39.0 mg/kg/injection, schedule: Q02DX010 (ip), vehicle: other) was 167 % of control and the T/C (dose: 40.0 mg/kg/injection, schedule: Q01DX001 (ip), vehicle: saline) was 106 % of control. For the same compound, the T/C (dose: 42.0 mg/kg/injection, schedule: Q01DX001 (ip), vehicle: carboxymethylcellulose (CMC)) was 122 % of control, the T/C (dose: 42.0 mg/kg/injection, schedule: Q01DX001 (ip), vehicle: other) was 117 % of control and the T/C (dose: 44.0 mg/kg/injection, schedule: Q01DX001 (ip), vehicle: carboxymethylcellulose (CMC)) was 113 % of control. For the same compound, the T/C (dose: 48.0 mg/kg/injection, schedule: Q01DX001 (ip), vehicle: carboxymethylcellulose (CMC)) was 113 % of control, the T/C (dose: 48.0 mg/kg/injection, schedule: Q01DX010 (ip), vehicle: water) was 157 % of control and the T/C (dose: 48.4 mg/kg/injection, schedule: Q01DX001 (ip), vehicle: carboxymethylcellulose (CMC)) was 104 % of control. The T/C (dose: 50.0 mg/kg/injection, schedule: Q01DX010 (sc), vehicle: olive oil, sesame oil, peanut oil) was 123 % of control, the T/C (dose: 50.0 mg/kg/injection, schedule: Q01DX015 (ip), vehicle: carboxymethylcellulose (CMC)) was 100 % of control and 124 % of control and the T/C (dose: 50.0 mg/kg/injection, schedule: Q02DX004 (im), vehicle: olive oil, sesame oil, peanut oil) was 156 % of control. For the same compound, the T/C (dose: 53.6 mg/kg/injection, schedule: Q## X032 (ip), vehicle: carboxymethylcellulose (CMC)) was 162 % of control, the T/C (dose: 54.0 mg/kg/injection, schedule: Q02DX010 (ip), vehicle: carboxymethylcellulose (CMC)) was 181 % of control and the T/C (dose: 54.0 mg/kg/injection, schedule: Q02DX010 (ip), vehicle: other) was 157 % of control. For the same compound, the T/C (dose: 54.0 mg/kg/injection, schedule: Q## X032 (ip), vehicle: carboxymethylcellulose (CMC)) was 153 % of control, the T/C (dose: 56.0 mg/kg/injection, schedule: Q01DX009 (ip), vehicle: Klucel (hydroxypropylcellulose) (HPC)) was 93 % of control and the T/C (dose: 56.0 mg/kg/injection, schedule: Q07DX Z (ip), vehicle: saline) was 123 % of control. The T/C (dose: 58.5 mg/kg/injection, schedule: Q02DX008 (ip), vehicle: carboxymethylcellulose (CMC)) was 166 % of control, the T/C (dose: 58.7 mg/kg/injection, schedule: Q02DX010 (ip), vehicle: carboxymethylcellulose (CMC)) was 162 % of control and the T/C (dose: 62.5 mg/kg/injection, schedule: Q01DX010 (oral), vehicle: other) was 113 % of control. The T/C (dose: 67.0 mg/kg/injection, schedule: Q## X004 (ip), vehicle: carboxymethylcellulose (CMC)) was 157 % of control and 161 % of control, the T/C (dose: 74.0 mg/kg/injection, schedule: Q01DX001 (ip), vehicle: carboxymethylcellulose (CMC)) was 120 % of control and the T/C (dose: 80.0 mg/kg/injection, schedule: Q01DX001 (ip), vehicle: saline) was 119 % of control. The T/C (dose: 80.0 mg/kg/injection, schedule: Q## X032 (ip), vehicle: carboxymethylcellulose (CMC)) was 163 % of control and 178 % of control and 188 % of control, the T/C (dose: 81.0 mg/kg/injection, schedule: Q02DX010 (ip), vehicle: carboxymethylcellulose (CMC)) was 106 % of control and the T/C (dose: 96.0 mg/kg/injection, schedule: Q01DX001 (ip), vehicle: carboxymethylcellulose (CMC)) was 156 % of control. For the same compound, the T/C (dose: 96.0 mg/kg/injection, schedule: Q01DX001 (ip), vehicle: other) was 162 % of control, the T/C (dose: 100.0 mg/kg/injection, schedule: Q01DX010 (sc), vehicle: olive oil, sesame oil, peanut oil) was 93 % of control and the T/C (dose: 112.0 mg/kg/injection, schedule: Q07DX Z (ip), vehicle: saline) was 121 % of control. The T/C (dose: 120.0 mg/kg/injection, schedule: Q## X032 (ip), vehicle: carboxymethylcellulose (CMC)) was 180 % of control and 181 % of control, the T/C (dose: 125.0 mg/kg/injection, schedule: Q01DX010 (oral), vehicle: other) was 107 % of control and the T/C (dose: 180.0 mg/kg/injection, schedule: Q## X032 (ip), vehicle: carboxymethylcellulose (CMC)) was 94 % of control. The T/C (dose: 250.0 mg/kg/injection, schedule: Q01DX010 (oral), vehicle: other) was 111 % of control.
With `CC(C)(C)NC(=O)Nc1cccc(C(=O)O)c1` the T/C (dose: 100.0 mg/kg/injection, schedule: Q01DX009 (ip), vehicle: Klucel (hydroxypropylcellulose) (HPC)) was 97 % of control, the T/C (dose: 200.0 mg/kg/injection, schedule: Q01DX009 (ip), vehicle: Klucel (hydroxypropylcellulose) (HPC)) was 109 % of control and the T/C (dose: 400.0 mg/kg/injection, schedule: Q01DX009 (ip), vehicle: Klucel (hydroxypropylcellulose) (HPC)) was 101 % of control.
